Measured values reported in PubChem BioAssay (NCI).
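In this assay, cells in 96-well plates receive the compound at five concentrations for 48 hours. Endpoints are linearly interpolated between the surrounding concentrations. Abbreviation: GI50, concentration required for 50% inhibition of growth. At the TGI there is no net growth.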

Tests used:
Assay in all cases: NCI-60 cell line screen, 48 h
[1] = tested on: UO-31 renal
[2] = tested on: EKVX NSCLC
[3] = tested on: SNB-19 CNS
[4] = tested on: DU-145 prostate
[5] = tested on: NCI-H23 lung
[6] = tested on: IGROV1 ovarian
[7] = tested on: MDA-MB-435
[8] = tested on: M14 melanoma
[9] = tested on: OVCAR-8 ovarian
[10] = tested on: PC-3 prostate
[11] = tested on: NCI-H226 lung
[12] = tested on: HCT-116 colon
[13] = tested on: OVCAR-5 ovarian
[14] = tested on: A549 NSCLC
[15] = tested on: MCF7 breast
[16] = tested on: SK-OV-3 ovarian
[17] = tested on: K-562 leukemia
[18] = tested on: SK-MEL-2 melanoma
[19] = tested on: NCI/ADR-RES ovarian
[20] = tested on: SR leukemia
[21] = tested on: HL-60(TB) leukemia
[22] = tested on: HT29 colon
[23] = tested on: HCT-15 colon
[24] = tested on: CCRF-CEM leukemia
[25] = tested on: LOX IMVI melanoma
[26] = tested on: HCC-2998 colon
[27] = tested on: RPMI-8226 leukemia
[28] = tested on: T-47D breast

Oc1ccc(CSc2nnc(-c3cnccn3)n2-c2ccccc2)c2cccnc12
GI50 [1]: 458 nM | TGI [1]: 15300 nM | GI50 [2]: 1870 nM | TGI [2]: > 100000 nM | GI50 [3]: 522 nM | TGI [3]: > 100000 nM | GI50 [4]: 669 nM | TGI [4]: > 100000 nM | GI50 [5]: 496 nM | TGI [5]: > 61000 nM | GI50 [6]: 923 nM | TGI [6]: > 100000 nM | GI50 [7]: 571 nM | TGI [7]: > 100000 nM | GI50 [8]: 815 nM | GI50 [9]: 519 nM | TGI [9]: > 100000 nM | GI50 [10]: 586 nM | TGI [10]: > 100000 nM | GI50 [11]: 3780 nM | TGI [11]: > 100000 nM | GI50 [12]: 370 nM | TGI [12]: > 100000 nM | GI50 [13]: 3830 nM | TGI [13]: > 100000 nM | GI50 [14]: 1180 nM | TGI [14]: > 100000 nM | GI50 [15]: 334 nM | TGI [15]: > 100000 nM | GI50 [16]: 1280 nM | TGI [16]: 18200 nM | GI50 [17]: 468 nM | TGI [17]: > 100000 nM | GI50 [18]: 566 nM | GI50 [19]: 309 nM | TGI [19]: > 34800 nM | GI50 [20]: 409 nM | TGI [20]: > 100000 nM | GI50 [21]: 594 nM | TGI [21]: 5090 nM | GI50 [22]: 3990 nM | TGI [22]: > 100000 nM | GI50 [23]: 408 nM | TGI [23]: > 100000 nM | GI50 [24]: 563 nM | TGI [24]: > 100000 nM | GI50 [25]: 559 nM | TGI [25]: 13400 nM | GI50 [26]: 2900 nM | TGI [26]: > 100000 nM | GI50 [27]: 460 nM | TGI [27]: > 100000 nM | GI50 [28]: 1130 nM | TGI [28]: > 100000 nM
